This is an account of results in patent publication US9468687B2, “Immuno gene therapy for treatment of cancer and hyperproliferative diseases” (priority 2004, dated 2016).

Assay [1] deals with SCCVII squamous cell carcinoma. Briefly: Subcutaneous squamous cell carcinoma (SCCVII) tumor growth. As to conditions: pmIL-12/PPC 25 μg intratumoral weekly x4, two injections. It counts as in vivo, mouse.
Experimental: The effect of local administration of pIL-12/PPC complexes on the growth of subcutaneously implanted squamous cell (SCCVII) carcinoma was examined. 4×10^5 squamous carcinoma cells in 100 μl were implanted sc on the right flank of female Female CH3 mice (6-9 weeks, 17-22 grams) The mIL-12 plasmid was complexed with PPC at a 11:1 N:P ratio and administered locally into the tumors at a DNA dose of 25 μg in an injection volume of 50 μl once every week for four weeks starting ˜11 days after tumor implantation. Treatment groups of 12 mice were used and tumor growth was monitored twice per week using caliper measurement.
For combination therapy both gene therapy and chemotherapy treatment were given as described above. Treatment groups of 12 mice were used and tumor growth was monitored twice per week using caliper measurement.
In assay [2] the test system is ID8 peritoneal disseminated ovarian tumors. Briefly: pIL-12/PPC plus paclitaxel in peritoneal disseminated ovarian tumors. It counts as in vivo, mouse. The method, then:
Intraperitoneal IL-12 gene therapy was combined with paclitaxel chemotherapy to enhance the therapeutic response to disseminated ovarian tumors in mice. The mice were injected intraperitoneally with 5×10^6 ID8 cells in a volume of 500 μl. The treatments were started when tumor burden (mouse weight) reached approximately 20 grams (˜21 days after injection of cells). The mice were injected intraperitoneally with 25 μg of pmIL-12 complexed with PPC at a 11:1 N:P ratio in a volume of 500 μl. The gene treatment was repeated after 7 days constituting a total of two injections (Day 1, 8) per the study. Paclitaxel (Taxol®) was administered only once (Day 0) by intravenous injection at a dose of 8 mg/kg dose in an injection volume of 250 μL. For combination therapy, both gene therapy and chemotherapy treatments were given as described above. Animals were periodically weighed to assess the effect of gene treatment on tumor burden. […] The inhibition of tumor burden by pmIL-12/PPC complexes was slightly higher than that of paclitaxel.

Another assay concerns CT26 tumors. As to conditions: cited from earlier work.
Another assay deals with Renca tumors. Particulars: cited from earlier work.

As for `O=P1(N(CCCl)CCCl)NCCCO1` (stereo not drawn) [cyclophosphamide], in assay [1] (cyclophosphamide 200 mg/kg iv), the “tumor growth in combination study” value is given as “only a partial inhibition of tumor growth”. Moreover, the “animals that completely rejected the tumor (complete rejection rate)” value in assay [1] (cyclophosphamide iv) is listed as 10%.

On to `CC(=O)O[C@H]1C(=O)[C@@]2(C)[C@H]([C@H](OC(=O)c3ccccc3)[C@]3(O)C[C@H](OC(=O)[C@H](O)[C@@H](NC(=O)c4ccccc4)c4ccccc4)C(C)=C1C3(C)C)[C@]1(OC(C)=O)CO[C@@H]1C[C@@H]2O` [paclitaxel], for which, in assay [2] (pmIL-12 25 μg ip day 1, 8, paclitaxel 8 mg/kg iv day 0), the peritoneal tumor burden result is listed as “tumor reduction”. For the same molecule, the survival result in assay [2] (pmIL-12/PPC ip, paclitaxel 8 mg/kg iv) is “improved survival”.

For the molecule IFN-α, in the assay on CT26 tumors, the rejection rate is recorded as 0%. Further, the tumor rejection in the assay on Renca tumors is recorded as 25%.
